We go through 2 molecules from ChEMBL document CHEMBL5528002, “Identification of selective 5-LOX and FLAP inhibitors as novel anti-inflammatory agents by ligand-based virtual screening” (Eur J Med Chem, 2024).

Calls of active or inactive are those of the source. The calls are words filed in the database; no cut-off is given here.

Assay [1] concerns the target T1, Polyunsaturated fatty acid 5-lipoxygenase (Homo sapiens) (UniProt P09917).
T1 sequence (whole entry): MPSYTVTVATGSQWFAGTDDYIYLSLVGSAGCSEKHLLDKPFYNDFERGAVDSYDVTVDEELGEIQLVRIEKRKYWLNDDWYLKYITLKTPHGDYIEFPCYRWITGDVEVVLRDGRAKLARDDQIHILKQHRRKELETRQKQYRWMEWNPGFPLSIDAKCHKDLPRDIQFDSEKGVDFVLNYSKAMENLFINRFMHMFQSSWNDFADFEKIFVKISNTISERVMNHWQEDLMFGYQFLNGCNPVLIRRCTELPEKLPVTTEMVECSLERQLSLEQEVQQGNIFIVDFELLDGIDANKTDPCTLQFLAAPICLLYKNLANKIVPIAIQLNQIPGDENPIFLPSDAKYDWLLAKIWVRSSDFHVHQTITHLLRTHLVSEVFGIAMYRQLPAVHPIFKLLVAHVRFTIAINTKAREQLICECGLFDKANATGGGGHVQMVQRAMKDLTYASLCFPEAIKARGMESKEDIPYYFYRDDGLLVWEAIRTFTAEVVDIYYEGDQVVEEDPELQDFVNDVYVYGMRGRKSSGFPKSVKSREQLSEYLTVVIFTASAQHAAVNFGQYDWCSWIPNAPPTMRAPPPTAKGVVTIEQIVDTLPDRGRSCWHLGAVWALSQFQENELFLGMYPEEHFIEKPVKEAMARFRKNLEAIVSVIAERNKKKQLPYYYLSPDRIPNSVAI
Put plainly: Inhibition of human recombinant 5-LOX expressed in Escherichia coli BL21(DE3) assessed as enzyme remaining activity at 10 uM using arachidonic acid as substrate preincubated with compound for 15 mins followed by substrate and CaCl2 addition measured after 10 mins by RP-HPLC analysis relative to control. Conditions: time 25.0 min.

The subject of assay [2] is Macrophage cell line. Put plainly: Effect on lipid mediator formation in human M1-like phenotype MDM cells by measuring 17-HDHA formation at 10 uM pre-incubated for 15 mins followed by SACM stimulation and measured after 90 mins by UPLC-MS/MS analysis (reference value: 360 +/- 89 pg/ml). It counts as functional. The note with it: time 105 min, 1.75 h.
Assay [3] deals with Macrophage cell line. Put plainly: Effect on lipid mediator formation in human M1-like phenotype MDM cells by measuring 14-HDHA formation at 10 uM pre-incubated for 15 mins followed by SACM stimulation and measured after 90 mins by UPLC-MS/MS analysis (reference value: 100 +/- 21 pg/ml). The format is functional. The note with it: time 105 min, 1.75 h.
The test system of assay [4] is Macrophage cell line. Put plainly: Effect on lipid mediator formation in human M1-like phenotype MDM cells by measuring 4-HDHA formation at 10 uM pre-incubated for 15 mins followed by SACM stimulation and measured after 90 mins by UPLC-MS/MS analysis (reference value: 58 +/- 9 pg/ml). The format is functional. Conditions: time 105 min, 1.75 h.
Assay [5] concerns Macrophage cell line. Put plainly: Effect on lipid mediator formation in human M1-like phenotype MDM cells by measuring 15-HEPE formation at 10 uM pre-incubated for 15 mins followed by SACM stimulation and measured after 90 mins by UPLC-MS/MS analysis (reference value: 57 +/- 10 pg/ml). It counts as functional. The note with it: time 105 min, 1.75 h.
Assay [6] relates to Macrophage cell line. Put plainly: Effect on lipid mediator formation in human M1-like phenotype MDM cells by measuring 12-HETE formation at 10 uM pre-incubated for 15 mins followed by SACM stimulation and measured after 90 mins by UPLC-MS/MS analysis (reference value: 181 +/- 39 pg/ml). The format is functional. Conditions: time 105 min, 1.75 h.
In assay [7] the test system is Macrophage cell line. Put plainly: Effect on lipid mediator formation in human M1-like phenotype MDM cells by measuring EPA formation at 10 uM pre-incubated for 15 mins followed by SACM stimulation and measured after 90 mins by UPLC-MS/MS analysis (reference value: 20261 +/- 1404 pg/ml). It counts as functional. The note with it: time 105 min, 1.75 h.
In assay [8] the test system is Macrophage cell line. Put plainly: Effect on lipid mediator formation in human M1-like phenotype MDM cells by measuring 5S,6R-diHETE formation at 10 uM pre-incubated for 15 mins followed by SACM stimulation and measured after 90 mins by UPLC-MS/MS analysis relative to control. Conditions: time 105 min, 1.75 h. It counts as functional.
In assay [9] the test system is Macrophage cell line. Put plainly: Effect on lipid mediator formation in human M1-like phenotype MDM cells by measuring 17-HDHA formation at 10 uM pre-incubated for 15 mins followed by SACM stimulation and measured after 90 mins by UPLC-MS/MS analysis relative to control. The format is functional. Conditions: time 105 min, 1.75 h.
The subject of assay [10] is Macrophage cell line. Put plainly: Effect on lipid mediator formation in human M1-like phenotype MDM cells by measuring DHA formation at 10 uM pre-incubated for 15 mins followed by SACM stimulation and measured after 90 mins by UPLC-MS/MS analysis relative to control. The format is functional. Conditions: time 105 min, 1.75 h.
For assay [11], the system named is Macrophage cell line. Put plainly: Effect on lipid mediator formation in human M2-like phenotype MDM cells by measuring 5-HETE formation at 10 uM pre-incubated for 15 mins followed by SACM stimulation and measured after 90 mins by UPLC-MS/MS analysis (reference value: 4812 +/- 561 pg/ml). The format is functional. The note with it: time 105 min, 1.75 h.
In assay [12] the test system is Macrophage cell line. Put plainly: Effect on lipid mediator formation in human M2-like phenotype MDM cells by measuring 5S,6R-diHETE formation at 10 uM pre-incubated for 15 mins followed by SACM stimulation and measured after 90 mins by UPLC-MS/MS analysis (reference value: 206 +/- 47 pg/ml). The format is functional. The note with it: time 105 min, 1.75 h.
Assay [13] concerns Macrophage cell line. Put plainly: Effect on lipid mediator formation in human M2-like phenotype MDM cells by measuring PGF2alpha formation at 10 uM pre-incubated for 15 mins followed by SACM stimulation and measured after 90 mins by UPLC-MS/MS analysis (reference value: 72 +/- 21 pg/ml). It counts as functional. Conditions: time 105 min, 1.75 h.
The subject of assay [14] is Macrophage cell line. Put plainly: Effect on lipid mediator formation in human M2-like phenotype MDM cells by measuring TXB2 formation at 10 uM pre-incubated for 15 mins followed by SACM stimulation and measured after 90 mins by UPLC-MS/MS analysis (reference value: 4488 +/- 452 pg/ml). It counts as functional. Conditions: time 105 min, 1.75 h.
The subject of assay [15] is Macrophage cell line. Put plainly: Effect on lipid mediator formation in human M2-like phenotype MDM cells by measuring 4-HDHA formation at 10 uM pre-incubated for 15 mins followed by SACM stimulation and measured after 90 mins by UPLC-MS/MS analysis relative to control. It counts as functional. Conditions: time 105 min, 1.75 h.
Assay [16] deals with T1, Polyunsaturated fatty acid 5-lipoxygenase (Homo sapiens). Put plainly: Inhibition of 5-LOX in human Neutrophil at 10 uM using arachidonic acid as substrate preincubated with compound for 15 mins followed by substrate and A23187 addition measured after 10 mins by RP-HPLC analysis relative to control. The format is cell-based. Conditions: time 25.0 min.
For assay [17], the target named is T2, Prostaglandin E synthase (Homo sapiens) (UniProt O14684).
T2 sequence (whole entry): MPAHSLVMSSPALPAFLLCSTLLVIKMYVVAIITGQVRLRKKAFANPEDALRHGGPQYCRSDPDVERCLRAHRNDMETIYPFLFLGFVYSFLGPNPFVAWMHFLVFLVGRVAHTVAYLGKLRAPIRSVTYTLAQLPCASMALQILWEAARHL
Put plainly: Inhibition of human mPGES-1 at 10 uM relative to control.

The nature of assay [18]: Antioxidant activity assessed as DPPH radical scavenging activity at 10 uM incubated for 30 min by DPPH assay. It counts as functional. (Loss of DPPH colour is used to gauge radical scavenging.)
A further assay deals with Neutrophil. Put plainly: Inhibition of ROS production in PMA-induced human Neutrophil cells at 1 uM incubated for 10 mins by DCFH-DA dye based fluorometric assay. It counts as functional, cell-based.

Regarding `COc1ccc(C2=C/C(=C/c3ccc(O)cc3O)C(=O)O2)cc1`, the Activity was 84.5% in assay [1]; 380 pg/mL in the assay with Macrophage cell line [2]; 93 pg/mL with Macrophage cell line [3]; 47 pg/mL in the assay on Macrophage cell line [4]; 55 pg/mL in the assay on Macrophage cell line [5]; 157 pg/mL in the assay on Macrophage cell line [6]. Further, the Activity with Macrophage cell line [7] was 27649 pg/mL; in the assay with Macrophage cell line [8], 5%; in the assay with Macrophage cell line [9] it was 106%; with Macrophage cell line [10] it was 108%; with Macrophage cell line [11] it was 450 pg/mL; with Macrophage cell line [12], 8 pg/mL. The Activity in the assay with Macrophage cell line [13] amounted to 89 pg/mL; in the assay on Macrophage cell line [14], 3416 pg/mL; in the assay with Macrophage cell line [15] it was 85%. In addition, the inhibition (commonly the drop in the measured response relative to a control, in per cent) in assay [16] is greater than 50%. In addition, the inhibition result (in assay [17]; in the assay on Neutrophil) was “inactive” in each case. In assay [18], the result was inactive.

With `Oc1ccc(CCC2CCC(c3ccc(O)cc3)CO2)cc1` (stereo not drawn), the Activity was found to be 96.5% in [1]; 485 pg/mL in the assay with Macrophage cell line [2]; 88 pg/mL with Macrophage cell line [3]; 44 pg/mL in the assay with Macrophage cell line [4]; 55 pg/mL in the assay on Macrophage cell line [5]; 158 pg/mL in the assay on Macrophage cell line [6]. Besides, the Activity in the assay on Macrophage cell line [7] is 22962 pg/mL; in the assay with Macrophage cell line [8] it was 5%; in the assay on Macrophage cell line [9], 135%; in the assay on Macrophage cell line [10], 94%; in the assay on Macrophage cell line [11], 1181 pg/mL; in the assay with Macrophage cell line [12], 14 pg/mL. Besides, the Activity turned out to be 58 pg/mL with Macrophage cell line [13], 3850 pg/mL in the assay with Macrophage cell line [14] and 100% in the assay on Macrophage cell line [15]. Besides, the inhibition in [16] is greater than 50%. For the same molecule, the inhibition entry (in assay [17]; in the assay with Neutrophil) was “inactive” in each case. In addition, the result in assay [18] was inactive.
